Results taken from ChEMBL document CHEMBL3044550, “Insect antifeedant potent 6-substituted -bromo-2-naphthones” (2011).
Calls of active or inactive are those of the source. No cut-off for these calls is given here.

test system: Achaea janata; assay: Antifeedant activity against Achaea janata L. fourth-instar larvae fed on 100 ppm compound pre-treated castor leaves for 24 hrs assessed total leaf disks consumed in 24 hrs by leaf disk bioassay; format: functional, organism-based

In the case of `O=C(CBr)c1ccc2cc(Br)ccc2c1`, the Activity was “Active”.

test system: Achaea janata; assay: Achaea janata L. fourth-instar larvae fed on 200 ppm compound pre-treated castor leaves for 24 hrs assessed total leaf disks consumed in 24 hrs by leaf disk bioassay; format: functional

Compared with `O=C(CBr)c1ccc2cc(F)ccc2c1`, `Cc1ccc2cc(C(=O)CBr)ccc2c1` is higher in Activity: 5 for the first, 9 for the second.

Compared with `O=C(CBr)c1ccc2ccccc2c1`, `O=C(CBr)c1ccc2cc(Cl)ccc2c1` is lower in Activity: 6.5 for the first, 4.5 for the second.

Compared with `CS(=O)(=O)c1ccc2cc(C(=O)CBr)ccc2c1`, `O=C(CBr)c1ccc2cc(O)ccc2c1` is lower in Activity: 9 for the first, 4 for the second.

First: CSc1ccc2cc(C(=O)CBr)ccc2c1
Second: O=C(CBr)c1ccc2cc(Br)ccc2c1
The Activity of the first is higher: 8 for the first, 3.5 for the second.

In the case of `COc1ccc2cc(C(=O)CBr)ccc2c1`, the Activity was 4.
